Values of other authors in patent US9220759B2, “Treatment of diabetic patients with a drug eluting stent and adjunctive therapy” (Abbott Cardiovascular Systems Inc., priority 2012, dated 2015).

System: restenosis after bare metal stent implantation
Conditions: diabetic patients prescribed the drug, compared to the control group, study of limited size

## CN(CCOc1ccc(CC2SC(=O)NC2=O)cc1)c1ccccn1 (stereo not shown) [rosiglitzone, rosiglitazone]
  rate of restenosis: reduction in the rate of restenosis
